Data on one molecule can be found in patent US7858388B2, “MS based peptide and protein sequencing via reactions of lysine residues with peroxycarbonate compounds” (Vanderbilt University, priority 2004, dated 2010).

The series can be described thus: Half-life of peroxycarbonate 1 in basic phosphate buffer (formation of p-nitrophenoxide). In kind it is physicochemical. The settings on record: pH 8.2 phosphate buffer (50% MeOH). As for the experimental part: Reaction of p-nitrophenylchloroformate with tert-butyl hydroperoxide gave the peroxycarbonate 1 which was isolated by silica chromatography as a white solid. Pyridine was added dropwise to a 0° C. methylene chloride solution of the hydroperoxide and chloroformate. The product was characterized by ^1H and ^13C NMR, HRMS, mp=55-56° C. In basic water or water acetonitrile mixtures, 1 gave an almost immediate yellow color indicative of the formation of p-nitrophenoxide. The half-life of 1 in pH 8.2 phosphate buffer (50% MeOH) is approximately 112 sec. In basic aqueous acetonitrile solutions, αN-acetyl lysine methyl ester was converted cleanly to 2 on reaction with 10 equivalents of 1. The peroxycarbamate 2 (Ac-LPC-OMe) is stable to chromatography and can be fully characterized by spectroscopy and HRMS (“LPC” is used herein for lycine peroxycarbamate).

The structures appear in SMILES notation.

As for `CC(C)(C)OOC(=O)Oc1ccc([N+](=O)[O-])cc1` [compound 1], the half-life was ~1.87 min.
